These results are taken from patent publication US20240175819A1, “DIAGNOSTIC TEST” (THE UNIVERSITY OF WARWICK, priority 2022, published 2024).

This test has as its system E. coli. Description: Hydrogel biosensors with encapsulated antibiotic spiked with E. coli; inhibition of bacterial growth by antibiotic release (FIG. 6). The format is cell-based. Particulars: antibiotic encapsulated within crosslinked hydrogel network, photographs. From the text:
FIG. 6 is a series of photographs of biosensors each comprising a different antibiotic wherein bacterial growth is inhibited as a result of antibiotic release from the hydrogel network;
Referring now to FIG. 6, there is shown photographs of three biosensors 6A, 6B, 6C each comprising a different antibiotic encapsulated within the crosslinked hydrogel network. Biosensor 6A comprises the antibiotic chloramphenicol, biosensor 6B comprises the antibiotic kanamycin, and biosensor 6C comprises the antibiotic ampicillin. The biosensors 6A, 6B, 6C were spiked with E. coli. In each case, it is shown that there is antibacterial activity in the area surrounding the spiked portion of hydrogel. Therefore, in these cases, E. coli. is shown to be susceptible to the antibiotics encapsulated within the biosensors 6A, 6B, 6C.

SMILES strings stand for the structures.

Take `CC1(C)S[C@@H]2[C@H](NC(=O)[C@H](N)c3ccccc3)C(=O)N2[C@H]1C(=O)O` [ampicillin]: the “susceptibility of E. coli to the antibiotic encapsulated within the biosensor (antibacterial activity in the area surrounding the spiked portion of hydrogel)” value is “susceptible”. As for `O=C(N[C@H](CO)[C@H](O)c1ccc([N+](=O)[O-])cc1)C(Cl)Cl` [chloramphenicol], the “susceptibility of E. coli to the antibiotic encapsulated within the biosensor (antibacterial activity in the area surrounding the spiked portion of hydrogel)” value was “susceptible”.
